Data on 9 molecules can be found in US5866787A, “Transgenic plants co-expressing a functional human 2-5A system” (Cleveland Clinic Foundation, priority 1995, dated 1999).

The subject of test [1] is murine 2-5A-dependent RNase (truncated recombinant clone ZB1 and murine L cell enzyme). Kind of test: UV covalent crosslinking of 32P-2-5A probe with unlabeled oligonucleotide competitors, murine enzyme. It counts as binding. The settings on record: for competition with 2-5A probe binding: competitor 100 nM, recombinant 74 kDa protein produced in wheat germ extract. As to the method: FIG. 2A is a specific affinity of truncated murine 2-5A-dependent RNase for 2-5A. UV covalent crosslinking of the ^32 P-2-5A probe (lanes 1-7) to protein is performed after translation reactions in wheat germ extract (5 μl) with murine 2-5A-dependent RNase mRNA (from clone ZB1) (lanes 1-3) or without added RNA (lane 4) or in extract of interferon treated mouse L cells (100 μg of protein) (lanes 5-7). Reactions are without added competitor (lanes 1, 4, and 5) or in the presence of either timer core. (A2'p)2 A, (100 nM) (lanes 2 and 6) or timer 2-5A, p3 (A2'p)2 A (100 nM) (lanes 3 and 7).
Autoradiograms of the dried SDS/10% polyacrylamide gels are shown. Concentrations of the oligonucleotide competitors are indicated. […].
(§1) The synthesis of the 2-5A probe, p(A2'p)2 (br^8 A2'p)2 A[32P]Cp, and its crosslinking to 2-5A-dependent RNase is performed exactly as described. See Nolan-Sorden, N. L. et al., Anal. Biochem., 184:298-304 (1990). Briefly, the 2-5A probe, about 0.7 to 2.5 nM at […], is incubated for about one hour on ice with cell extract prepared as described, Silverman, R. H. and Krause, D., I.R.L. Press, Oxford, England, pp. 149-193 (1987), in the absence or presence of unlabeled oligonucleotide competitors. Covalent crosslinking is done under a uv lamp (308 nm) for one hour on ice and the proteins are separated on SDS/10% polyacrylamide gels. Filter assays for 2-5A binding activity using the 2-5A probe for about one hour on ice, as described in Knight, M. et al., Nature, 288:189-192 (1980).

The test system of test [2] is recombinant human 2-5A-dependent RNase. Put plainly: UV covalent crosslinking of 2-5A probe with competitors, human enzyme. The settings on record: competitor 100 nM; recombinant human enzyme produced in wheat germ extract. It counts as binding. As to the method: FIG. 5A is specific affinity of recombinant human 2-5A-dependent RNase for 2-5A. Crosslinking of the 2-5A probe (lanes 1-7) to protein is performed after translation reaction in wheat germ extract (5 λl) with human 2-5A-dependent RNase mRNA (lanes 1-3) or without added RNA (lane 4) or in extract of human interferon a treated (1000 units per ml for 16 h) human HeLa cells (350 μg of protein) (lanes 5-7). Reactions were without added competitor (lanes 1, 4, and 5) or in the presence of either timer core, (A2'p)2 A, (100 nM) (lanes 2 and 6) or timer 2-5A, p3 (A2'p)2 A (100 nM) (lanes 3 and 7). Incubations with ^35 S-methionine are shown in lanes 8 to 12. Lane 8 is with wheat germ extract and human 2-5A-dependent RNase mRNA. Reticulocyte lysate preadsorbed to 2-5A-cellulose is incubated with human 2-5A-dependent RNase mRNA in the absence (lane 9) or presence (lane 10) of cycloheximide, or in the absence of added mRNA (lane 11). […] The positions and relative molecular masses (in kDa) of the marker proteins are indicated.
The synthesis of the 2-5A probe, p(A2'p)2 (br^8 A2'p)2 A[32P]Cp, and its crosslinking to 2-5A-dependent RNase is performed exactly as described. See Nolan-Sorden, N. L. et al., Anal. Biochem., 184:298-304 (1990). […]

In test [3] the test system is 2-5A probe. Kind of test: 2-5A binding activity of nested 3'-deletion clones (filter binding and uv crosslinking). The settings on record: produced in wheat germ extract.
From the text: See Example and Knight et al. 1980). The positions of the P-loop motifs and the lengths of the translation products are indicated. Clone ZB1 encodes for amino acids designated as 1-656 in Table 2, except for the last 5 amino acid residues which are Lys, Pro, Leu, Ser, and Gly. Clone ZB2 encodes for amino acids designated as 1-619 in Table 2. Clone ZB3 encodes for amino acids designated as 1-515 in Table 2. Clone ZB5 encodes for amino acids designated as 1-474 in Table 2. Clone ZB9 encodes for amino acids designated as 1-403 in Table 2. Clone ZB10 encodes for amino acids designated as 1-365 in Table 2. Clone ZB13 encodes for amino acids designated as 1-294 in Table 2. Clone ZB14 encodes for amino acids designated as […] in Table 2. Clone ZB15 encodes for amino acids designated as 1-218 in Table 2.
The set of nested 3'-deletions of the truncated murine 2-5A-dependent RNase cDNA, ZB1, is generated with exonuclease III/S1 nuclease digestion followed by filling-in with Klenow DNA Polymerase using the "Erase-A-Base" system (Promega).
as §1

Test [4] has as its system poly(U). Kind of test: Ribonuclease assay with 2-5A-cellulose, poly(U) substrate. It counts as biochemical. The settings on record: enzyme translated in reticulocyte lysate, bound to 2-5A-cellulose, 30° C. As to the method:
(§2) FIG. 5B is reticulocyte lysate pretreated to remove endogenous 2-5A-dependent RNase and is incubated in the absence of added mRNA (.box-solid.), in the presence of human 2-5A-dependent RNase mRNA without inhibitor (.smallcircle., .quadrature.) or in the presence of both 2-5A-dependent RNase mRNA and cycloheximide (50 μg per ml (.circle-solid.). See Example I. Subsequently, the recombinant 2-5A-dependent RNase (or controls) is adsorbed to 2-5A-cellulose and ribonuclease assays are performed after extensive washing of the matrix to reduce general nuclease activity. Radiolabeled substrate RNA was either poly(U) (.smallcircle., .circle-solid., .box-solid.) or poly(C) (.quadrature.).
(§3) The ribonuclease assay with 2-5A-cellulose is performed, as described by Silverman, R. H., Anal. Biochem., 144:450-460 (1985). Briefly, lysates are adsorbed to about […] of 2-5A-cellulose on ice for about two hours. The matrix is then washed three times by centrifuging and resuspending in buffer A. See Silverman, R. H., Anal. Biochem., 144:450-460 (1985). The matrix is then incubated with poly(U)-[^32 P]Cp or poly(C)-[^32 P]Cp (both at about 16 μM in nucleotide equivalents) at about 30° C. and the levels of acid-precipitable radioactive RNA are determined by filtration on glass-fiber filters.

Test [5] relates to poly(C). Kind of test: Ribonuclease assay with 2-5A-cellulose, poly(C) substrate. It counts as biochemical. The conditions noted are these: after one hour of incubation. As to the method:
as §2, §3

Where [6] appears, read: 2-5A probe 2.4 nM, both recombinant and naturally occurring protein.

Where only a bound is given, the exact number is not on record here.

Consider p3 A2'pA, for which the “concentration required to prevent 2-5A probe binding” value (“concentration required” for short) in test [1] (setting [6]) was above 10 µM.

For the molecule p3 I2'pA2'pA, the “concentration required” value in test [1] (setting [6]) was “about 1.0 μM”.

Regarding (A2'p)2 A, the “concentration required” value in test [1] (setting [6]) amounted to 10 µM. Also, the “competition with 2-5A probe binding” value in test [1] is reported as “fails to interfere with binding”; in test [2] it was “not prevented”. The “fold higher concentration than trimer 2-5A required to prevent probe binding” value in test [1] (relative to p3 (A2'p)2 A at about 20 nM) is reported as 500 fold.

In the case of p3 (A2'p)2 A, in test [1] (setting [6]), the “concentration that prevents the 2-5A probe from binding” value was “about 20 nM”. Further, the “competition with 2-5A probe binding” value was “completely prevents probe binding” in test [1] and “effectively competes” in test [2].

B1: ZB15: murine 2-5A-dependent RNase deletion clone, amino acids 1 to 218, both P-loop motifs deleted (protein, UniProt Q05921 1-218, looked up, fragment)
chain: METPDYNTPQGGTPSAGSQRTVVEDDSSLIKAVQKGDVVRVQQLLEKGADANACEDTWGWTPLHNAVQAGRVDIVNLLLSHGADPHRRKKNGATPFIIAGIQGDVKLLEILLSCGADVNECDENGFTAFMEAAERGNAEALRFLFAKGANVNLRRQTTKDKRRLKQGGATALMSAAEKGHLEVLRILLNDMKAEVDARDNMGRNALIRTLLNWDCENV
As for B1, the “2-5A binding activity, % of clone ZB1” value in test [3] is reported as “completely lacking”.

B2: ZB11: murine 2-5A-dependent RNase deletion clone, amino acid residues 1 to 342 (protein, UniProt Q05921 1-342, looked up, fragment)
chain: METPDYNTPQGGTPSAGSQRTVVEDDSSLIKAVQKGDVVRVQQLLEKGADANACEDTWGWTPLHNAVQAGRVDIVNLLLSHGADPHRRKKNGATPFIIAGIQGDVKLLEILLSCGADVNECDENGFTAFMEAAERGNAEALRFLFAKGANVNLRRQTTKDKRRLKQGGATALMSAAEKGHLEVLRILLNDMKAEVDARDNMGRNALIRTLLNWDCENVEEITSILIQHGADVNVRGERGKTPLIAAVERKHTGLVQMLLSREGINIDARDNEGKTALLIAVDKQLKEIVQLLLEKGADKCDDLVWIARRNHDYHLVKLLLPYVANPDTDPPAGDWSPHSSRW
As for B2, in test [3], the “loss of 2-5A binding activity as compared to clone ZB1” value was “about 26%”.

B3: ZB13: murine 2-5A-dependent RNase deletion clone, amino acids 1 to 294 (protein, UniProt Q05921 1-294, looked up, fragment)
chain: METPDYNTPQGGTPSAGSQRTVVEDDSSLIKAVQKGDVVRVQQLLEKGADANACEDTWGWTPLHNAVQAGRVDIVNLLLSHGADPHRRKKNGATPFIIAGIQGDVKLLEILLSCGADVNECDENGFTAFMEAAERGNAEALRFLFAKGANVNLRRQTTKDKRRLKQGGATALMSAAEKGHLEVLRILLNDMKAEVDARDNMGRNALIRTLLNWDCENVEEITSILIQHGADVNVRGERGKTPLIAAVERKHTGLVQMLLSREGINIDARDNEGKTALLIAVDKQLKEIVQLLLE
On to B3, for which the “2-5A binding activity, % of clone ZB1” value in test [3] is given as “about 38.3%”.

B4: ZB14: murine 2-5A-dependent RNase deletion clone, amino acids 1 to 265, one P-loop motif deleted (protein, UniProt Q05921 1-265, looked up, fragment)
chain: METPDYNTPQGGTPSAGSQRTVVEDDSSLIKAVQKGDVVRVQQLLEKGADANACEDTWGWTPLHNAVQAGRVDIVNLLLSHGADPHRRKKNGATPFIIAGIQGDVKLLEILLSCGADVNECDENGFTAFMEAAERGNAEALRFLFAKGANVNLRRQTTKDKRRLKQGGATALMSAAEKGHLEVLRILLNDMKAEVDARDNMGRNALIRTLLNWDCENVEEITSILIQHGADVNVRGERGKTPLIAAVERKHTGLVQMLLSREGIN
Regarding B4, in test [3], the “2-5A binding activity, % of clone ZB1” value worked out at 1.9%.

B5: recombinant human 2-5A-dependent RNase: full-length human 2-5A-dependent RNase (clone ZC5) produced in vitro in reticulocyte lysate (protein)
chain: MESRDHNNPQEGPTSSSGRRAAVEDNHLLIKAVQNEDVDLVQQLLEGGANVNFQEEEGGWTPLHNAVQMSREDIVELLLRHGADPVLRKKNGATLFILAAIAGSVKLLKLFLSKGADVNECDFYGFTAFMEAAVYGKVKALKFLYKRGANVNLRRKTKEDQERLRKGGATALMDAAEKGHVEVLKILLDEMGADVNACDNMGRNALIHALLSSDDSDVEAITHLLLDHGADVNVRGERGKTPLILAVEKKHLGLVQRLLEQEHIEINDTDSDGKTALLLAVELKLKKIAELLCKRGASTDCGDLVMTARRNYDHSLVKVLLSHGAKEDFHPPAEDWKPQSSHWGAALKDLHRIYRPMIGKLKFFIDEKYKIADTSEGGIYLGFYEKQEVAVKTFCEGSPRAQREVSCLQSSRENSHLVTFYGSESHRGHLFVCVTLCEQTLEACLDVHRGEDVENEEDEFARNVLSSIFKAVQELHLSCGYTHQDLQPQNILIDSKKAAHLADFDKSIKWAGDPQEVKRDLEDLGRLVLYVVKKGSISFEDLKAQSNEEVVQLSPDEETKDLIHRLFHPGEHVRDCLSDLLGHPFFWTWESRYRTLRNVGNESDIKTRKSESEILRLLQPGPSEHSKSFDKWTTKINECVMKKMNKFYEKRGNFYQNTVGDLLKFIRNLGEHIDEEKHKKMKLKIGDPSLYFQKTFPDLVIYVYTKLQNTEYRKHFPQTHSPNKPQCDGAGGASGLASPGC
B5: in test [4], the “half-life of poly(U) degradation” value is reported as “about 10 minutes”. The “poly(C) degraded” value in test [5] was 20%.
